In patent US20060183780A1, “Pyrazole compounds useful in the treatment of inflammation” (priority 2003, published 2006):

target: T1, 15-lipoxygenase (Homo sapiens, UniProt P16050); experiment: 15-lipoxygenase inhibition, DPPP fluorescence assay with linoleic acid; format: biochemical; conditions: biological test method; test concentration not given
T1 sequence (P16050 1-662): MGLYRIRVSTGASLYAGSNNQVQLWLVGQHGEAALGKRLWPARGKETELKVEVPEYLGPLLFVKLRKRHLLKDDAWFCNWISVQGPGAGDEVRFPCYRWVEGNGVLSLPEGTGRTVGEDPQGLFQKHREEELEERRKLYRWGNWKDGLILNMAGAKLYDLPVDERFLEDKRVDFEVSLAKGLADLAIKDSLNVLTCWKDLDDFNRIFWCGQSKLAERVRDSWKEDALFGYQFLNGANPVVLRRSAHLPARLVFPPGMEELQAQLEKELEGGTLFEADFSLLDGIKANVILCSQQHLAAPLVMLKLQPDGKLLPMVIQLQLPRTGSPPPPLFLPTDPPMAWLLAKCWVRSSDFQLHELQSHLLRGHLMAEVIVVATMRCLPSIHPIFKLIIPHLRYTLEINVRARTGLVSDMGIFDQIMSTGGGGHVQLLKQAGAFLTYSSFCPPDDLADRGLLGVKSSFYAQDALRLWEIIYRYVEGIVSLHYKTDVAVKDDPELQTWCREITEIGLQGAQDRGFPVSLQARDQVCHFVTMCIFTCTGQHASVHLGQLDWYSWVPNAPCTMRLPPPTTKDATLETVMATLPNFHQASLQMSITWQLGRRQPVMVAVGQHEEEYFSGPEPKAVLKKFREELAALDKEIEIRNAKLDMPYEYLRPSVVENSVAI
Experimental: The assay employed takes advantage of the ability of lipid hydroperoxides to oxidize the non-fluorescent diphenyl-1-pyrenylphosphine (DPPP) to its corresponding fluorescent phosphine oxide. Fluorescence is measured using a dual-scanning microplate spectrofluorometer, Spectramax Gemini, from Molecular Devices. DPPP was purchased from Molecular Probes. Linoleic acid was from Biomol and PBS (phosphate buffered saline) from Gibco Life Technologies. The assay is performed in 96-well plates at room temperature (20-22° C.). The following are added (in the following order) to each well:
a) 35 μl of Dulbecco's phosphate buffered saline (PBS);
b) inhibitor (i.e. compound) or vehicle (0.5 μl DMSO);
c) 10 μL of a 5× concentrated 15-lipoxygenase solution in PBS. The plates are incubated for 5 minutes at room temperature;
d) 5 μl of 2 mM linoleic acid in PBS. The plate is then incubated for 20 minutes at room temperature;
e) the enzymatic reaction is terminated by the addition of 50 μl methanol; and
f) 50 μl of 200 μM DPPP in methanol is added to each well.
After 30 minutes at room temperature, the fluorescence can be read using an excitation wavelength of 358 nm and an emission wavelength of 379 nm.

| SMILES | inhibition of 15-lipoxygenase [%] |
| --- | --- |
| COC(=O)c1ccsc1NC(=O)c1ccn(C(=O)c2cc(F)ccc2C)n1 [Example 8, 2-{[1-(5-Fluoro-2-methylbenzoyl)-1H-pyrazole-3-carbonyl]amino}-thiophene-3-carboxylic acid methyl ester] | 50 |
| CCOc1ccccc1C(=O)n1ccc(C(=O)Nc2cc(C)no2)n1 [Example 14, 1-(2-Ethoxybenzoyl)-1H-pyrazole-3-carboxylic acid (3-methylisoxazol-5-yl)amide] | 39 |
| CCCCCc1ccc(C(=O)n2ccc(C(=O)Nc3ccc(N(C)C)cc3)n2)cc1 [Example 23, 1-(4-Pentylbenzoyl)-1H-pyrazole-3-carboxylic acid (4-dimethylaminophenyl)amide] | 44 |

Second part, the molecule after the results:

| inhibition of 15-lipoxygenase [%] | SMILES |
| --- | --- |
| 45 | O=C(Nc1cccnc1)c1ccn(C(=O)c2ccccc2)n1 [Example 1, 1-Benzoyl-1H-pyrazole-3-carboxylic acid pyridin-3-ylamide] |
| 45 | CCOc1ccccc1C(=O)n1ccc(C(=O)Nc2cc(Cl)ccc2C#N)n1 [Example 26, 1-(2-Ethoxybenzoyl)-1H-pyrazole-3-carboxylic acid (5-chloro-2-cyanophenyl)amide] |
